Assay results published in paper PMC12456999, “Sulfonyl Homoserine Lactones Are Tunable Probes to Inhibit the Quorum Sensing Receptor RhlR and Reduce Swarming Motility in Pseudomonas aeruginosa” (ACS Infectious Diseases, 2025).
Where two headings read alike, the source gives them in different places. Marks after values point to notes of the source that are not given here.

Experiments:
RhlR [1] = target: T1, RhlR (Pseudomonas aeruginosa, UniProt P54292); settings: P. aeruginosa RhlR reporter systems; reference number not given; cited from earlier work
T1 construct: expressed in transfected cells; host or cells: E. coli JLD271 (K-12 ΔlacX74 sdiA271::Cam) carrying pJN105-R2 (RhlR expression) and pSC11-rhlI (rhlI'-lacZ reporter)
T1 sequence (P54292 whole entry): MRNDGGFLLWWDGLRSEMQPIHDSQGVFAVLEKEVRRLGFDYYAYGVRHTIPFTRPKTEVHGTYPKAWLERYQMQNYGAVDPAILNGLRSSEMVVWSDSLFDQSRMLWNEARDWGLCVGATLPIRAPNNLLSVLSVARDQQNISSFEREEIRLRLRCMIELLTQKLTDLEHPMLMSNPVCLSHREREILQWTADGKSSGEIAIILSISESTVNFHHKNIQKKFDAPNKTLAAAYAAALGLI

RhlR [2] = target: T1, RhlR; assay: E. coli (JLD271) RhlR reporter agonism assay (no BHL added); assay type: cell-based; settings: for Emax: read-out: Max Activation (RhlR), E. coli JLD271 RhlR reporter, no BHL added, high concentrations
Method: (§1) To start, the sulfonyl HLs were evaluated for their ability to antagonize RhlR using a previously described E. coli strain (JLD271) harboring a RhlR expression plasmid and a rhlI reporter plasmid. This E. coli reporter produces RhlR, and protein activity in the presence of an added small molecule can be measured via the production of β-galactosidase as quantified via luminescence (see Methods). Compounds were screened in competition against RhlR’s native ligand, BHL (at its EC50 value in this strain, 10 μM), over a range of concentrations to generate antagonism dose–response curves (see Supporting Information) and calculate IC50 values (listed in Table ). A small set of compounds was also screened for RhlR agonism in the E. coli reporter; the agonism assay format was identical to the antagonism assay, except no BHL was added.
(§2) RhlR activity in E. coli strain JLD271 (ΔsdiA) was measured via a β-galactosidase reporter (rhI-lacZ) using the Promega Beta-Glo Assay System as previously described. RhlR activity in P. aeruginosa PA14 (ΔrhlIΔlasI) was measured via a GFP reporter (rhlA-gfp). […] See Supporting Information for both reporter protocols.
(§3) Supporting Information — Aguirre-Figueroa et al.
(§4) E. coli and P. aeruginosa RhlR reporter assay protocols.
E. coli RhlR reporter assay. RhlR activity in E. coli strain JLD271 (ΔsdiA) was measured via a β-galactosidase reporter using the Promega Beta-Glo® Assay System as previously described.10 A schematic of the reporter plasmids and assay protocol is shown in Scheme S1. Briefly, a single colony of E. coli JLD271 harboring the RhlR expression plasmid pJN105-R and the rhlI-lacZ transcriptional fusion reporter pSC11-R (Table S1) was grown in LB medium with 100 μg/mL ampicillin and 10 μg/mL gentamicin overnight (~16 h). The culture was diluted 1:10 in fresh LB medium and grown to an OD600 = 0.25 (0.23–0.28) (~0.5 h). Arabinose was added to a final concentration of 4 mg/mL to induce the expression of pJN105-R. Aliquots (2 μL) of compound DMSO stock solution or serial dilution were added to the inner wells (i.e., non-periphery rows) of a 96-well microtiter plate. To six inner wells, DMSO alone (vehicle) was added as a negative control. For agonism assays, BHL was added to six inner wells as a positive control (to achieve 1 mM). For antagonism assays, BHL was added to six inner wells as a positive control and to all of the other sample wells except for the vehicle control wells (to achieve 10 μM ). […]
After the incubation period, the OD600 of each well was measured using a plate reader. […] After incubation, luminescence of each well was measured using a plate reader. To determine levels of RhlR activity, raw luminescence was divided by OD600 to correct for growth variation and then normalized to the negative (0%) and positive (100%) control wells. […]

RhlR [3] = target: T1, RhlR; assay: P. aeruginosa RhlR reporter agonism assay; assay type: cell-based
Method: as §2, §3
P. aeruginosa RhlR reporter assay. RhlR activity in P. aeruginosa PA14 ΔrhlIΔlasI was measured via a GFP reporter. Briefly, a single colony of P. aeruginosa strain PA14 ΔrhlIΔlasI harboring the transcriptional fusion reporter pPROBE-GT rhlA-GFP (Table S1) was grown in LB medium with 40 μg/mL gentamicin overnight (~20 h). The culture was diluted 1:100 in fresh LB medium, without antibiotic, to an OD600 = 0.25 (0.22–0.30) (~1 h). Aliquots (2 μL) of compound DMSO stock solution or serial dilution were added to the inner wells (i.e., non-periphery rows) of a black, clear bottom 96-well plate. To 12 inner wells, DMSO alone (vehicle) was added to serve as controls (negative and positive). For the six negative control wells (no BHL), 198 μL of bacterial culture plus OdDHL (to achieve 10 μM) were added. […] After incubation, the OD600 and GFP production (excitation at 500 nm, emission at 540 nm) were read for each well using a plate reader. […]

RhlR [4] = target: T1, RhlR; assay: E. coli (JLD271) RhlR reporter antagonism assay, in competition with BHL; assay type: cell-based; settings: for activity profile in RhlR: E. coli RhlR reporter dose-response curves; for max. RhlR inhibition (%): E. coli RhlR reporter, BHL at 10 μM set to 0%, media control set to 100%
Method: as §1, §2, §3, §4
E. coli RhlR reporter assay. RhlR activity in E. coli strain JLD271 (ΔsdiA) was measured via a β-galactosidase reporter using the Promega Beta-Glo® Assay System as previously described.10 A schematic of the reporter plasmids and assay protocol is shown in Scheme S1. Briefly, a single colony of E. coli JLD271 harboring the RhlR expression plasmid pJN105-R and the rhlI-lacZ transcriptional fusion reporter pSC11-R (Table S1) was grown in LB medium with 100 μg/mL ampicillin and 10 μg/mL gentamicin overnight (~16 h). The culture was diluted 1:10 in fresh LB medium and grown to an OD600 = 0.25 (0.23–0.28) (~0.5 h). Arabinose was added to a final concentration of 4 mg/mL to induce the expression of pJN105-R. Aliquots (2 μL) of compound DMSO stock solution or serial dilution were added to the inner wells (i.e., non-periphery rows) of a 96-well microtiter plate. To six inner wells, DMSO alone (vehicle) was added as a negative control. For agonism assays, BHL was added to six inner wells as a positive control (to achieve 1 mM). For antagonism assays, BHL was added to six inner wells as a positive control and to all of the other sample wells except for the vehicle control wells (to achieve 10 μM ). Subculture (198 μL) was then dispensed into each inner well. To the outer (periphery) wells, 200 μL of water were added to maintain humidity during incubation. Plates were then incubated for 4 h (shaking) at 37 °C.
Scheme S1. Schematic of E. coli reporter plasmids and assay. (A) Representation of plasmids used in the heterologous reporter system. (B) General reporter assay workflow. BioRender used in […]
After the incubation period, the OD600 of each well was measured using a plate reader. Cell dilution plates were prepared by transferring 10 μL from the incubated culture plate wells to a fresh 96-well plate and adding 90 μL of 18 MΩ water to each well. Next, 10 μL aliquots of diluted Beta-Glo® reagent (1:2 with 18 MΩ water) were added to each well of a white 384-well microtiter plate, followed by 10 μL of culture from each well of the dilution plate. The 384-well plate was incubated (without shaking; i.e., static) for 30 min at 30 °C. After incubation, luminescence of each well was measured using a plate reader. To determine levels of RhlR activity, raw luminescence was divided by OD600 to correct for growth variation and then normalized to the negative (0%) and positive (100%) control wells.
Dose-response reporter assay data for compounds in the E. coli RhlR reporter.
Dose-response curves for RhlR antagonism by compounds against 10 μM BHL using the E. coli JLD271 RhlR reporter are provided below. Compound names are indicated on the x-axis of each plot.
All assays performed in triplicate as at least three separate biological replicates. […]

other LuxR homologues = test system: other LuxR homologues; design: method as in Kim et al.; settings: ref Kim et al.; cited from earlier work

| Structure (SMILES) | activity profile in RhlR (RhlR [4]) | max. RhlR inhibition (%) (RhlR [4]) | Emax (RhlR [2]) | further results |
| --- | --- | --- | --- | --- |
| CCCC(=O)N[C@H]1CCOC1=O [BHL, N-butanoyl L-homoserine lactone, reference compound] | – | – | – | EC50 (RhlR [1]): 5 to 10 µM; EC50 (RhlR [2]): 10 µM; IC50 (RhlR [2]): 8.73 µM; EC50 (RhlR [3]): 4.47 µM |
| O=C1OCC[C@@H]1NS(=O)(=O)Cc1ccc(C(F)(F)F)cc1 [Compound 15, 4-CF3 BnSHL] | partial agonist | 35 ^f % | 38% | – |
| O=C1OCC[C@@H]1NS(=O)(=O)c1cc(Cl)cc(Cl)c1 [Compound 50, 3,5-Cl-BSHL] | partial agonist behavior | – | 30% | – |
| O=C1OCC[C@@H]1NS(=O)(=O)c1ccccc1 [Compound 57] | – | 93% | – | antagonism of other LuxR homologues (other LuxR homologues): ~50%; IC50 (RhlR [4]; IC50, E. coli JLD271 RhlR reporter, against 10 μM BHL): 715 µM |
